Target: T1, UGT1A9 (Homo sapiens, UniProt O60656)
T1 sequence (O60656 26-530): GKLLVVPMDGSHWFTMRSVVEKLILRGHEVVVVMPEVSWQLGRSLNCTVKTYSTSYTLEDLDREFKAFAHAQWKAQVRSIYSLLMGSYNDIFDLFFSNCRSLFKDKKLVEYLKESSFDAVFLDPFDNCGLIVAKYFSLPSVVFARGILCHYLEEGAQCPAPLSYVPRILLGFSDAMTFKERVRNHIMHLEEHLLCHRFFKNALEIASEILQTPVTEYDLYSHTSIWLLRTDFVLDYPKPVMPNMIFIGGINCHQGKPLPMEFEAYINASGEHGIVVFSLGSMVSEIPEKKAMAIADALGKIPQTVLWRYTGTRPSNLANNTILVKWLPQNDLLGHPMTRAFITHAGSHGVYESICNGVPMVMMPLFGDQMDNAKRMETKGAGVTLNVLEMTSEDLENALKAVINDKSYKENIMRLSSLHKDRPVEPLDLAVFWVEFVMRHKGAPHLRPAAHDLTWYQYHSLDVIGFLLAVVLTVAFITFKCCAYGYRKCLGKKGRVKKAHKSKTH
Experiment: Kinetic profiling of glucuronidation by expressed human UGT1A9
Conditions: human, expressed human UGT1A9 (Supersomes), pH 7.4

Km	SMILES
3.34 µM	O=C1C[C@@H](c2ccc(O)cc2)Oc2cc(O)cc(O)c21 [compound 27, Narigenin]

Same assay, conditions: log of experimental CLint (μl/mg/min)

Log (CLint) (Actual)	SMILES
1.74	COc1cc(/C=C/C(=O)CC(=O)/C=C/c2ccc(O)c(OC)c2)ccc1O [compound 15, Curcumin]
1.14	COc1cc(/C=C/C(O)=C/C(=O)/C=C/c2ccc(O)cc2)ccc1O [compound 16, Demethoxycurcumin]
0.90	O=C(/C=C/c1ccc(O)cc1)CC(=O)/C=C/c1ccc(O)cc1 [compound 17, Bisdemethoxycurcumin]
0.82	CC/C(=C(\c1ccc(O)cc1)c1ccc(OCCNC)cc1)c1ccccc1 [compound 19, Endoxifen]
1.96	O=C1OC[C@H](Cc2cccc(O)c2)[C@H]1Cc1cccc(O)c1 [compound 20, Enterolactone]
1.31	O=C(c1ccc(OCCN2CCCCC2)cc1)c1c(-c2ccc(O)cc2)sc2cc(O)ccc12 [compound 22, Raloxifene, reference compound]
3.18	O=C1C[C@@H](c2ccc(O)cc2)Oc2cc(O)cc(O)c21 [compound 27, Narigenin]
2.27	O=c1cc(-c2ccccc2O)oc2ccccc12 [compound 28, 2′-Hydroxyflavone]
3.66	COc1ccc(-c2oc3cc(O)cc(O)c3c(=O)c2OC)cc1O [compound 29, 3,4′-Dimethoxy-5,7,3′-trihydroxyflavone]
3.22	COc1ccc(-c2oc3cc(O)cc(O)c3c(=O)c2OC)cc1OCc1ccccc1 [compound 30, 3′-Benzyloxy-5,7-dihydroxy-3,4′-dimethoxyflavone]
2.66	O=c1cc(-c2cccc(O)c2)oc2ccccc12 [compound 31, 3′-Hydroxyflavone]
1.83	O=c1cc(-c2ccc(O)cc2)oc2ccccc12 [compound 32, 4′-Hydroxyflavone]
2.93	COc1cc(-c2cc(=O)c3c(O)cc(O)cc3o2)cc(OC)c1OC [compound 33, 5,7-Dihydroxy-3′,4′,5′-trimethoxyflavone]
3.54	O=c1cc(-c2ccc(O)c(O)c2)oc2ccc(O)cc12 [compound 35, 6,3′,4′-Trihydroxyflavone]
2.96	O=c1cc(-c2ccccc2)oc2cc(O)c(O)cc12 [compound 37, 6,7-Dihydroxyflavone]
1.53	O=c1cc(-c2ccccc2)oc2ccc(O)cc12 [compound 38, 6-Hydroxyflavone]
3.22	COc1c(O)cc2oc(-c3ccc(O)c(O)c3)cc(=O)c2c1O [compound 39, 6-Methoxyluteolin]
3.57	O=c1cc(-c2ccccc2O)oc2cc(O)cc(O)c12 [compound 40, 5,7,2′-Trihydroxyflavone]
2.77	O=c1cc(-c2ccccc2O)oc2cc(O)ccc12 [compound 42, 7,2′-Dihydroxyflavone]
2.74	O=c1cc(-c2cccc(O)c2)oc2cc(O)ccc12 [compound 43, 7,3′-Dihydroxyflavone]

Log (CLint) (Actual)	SMILES
3.00	COc1ccccc1-c1cc(=O)c2ccc(O)cc2o1 [compound 44, 7-Hydroxy-2′-methoxyflavone]
3.30	Cc1c(-c2ccccc2)oc2cc(O)ccc2c1=O [compound 45, 7-Hydroxy-3-methylflavone]
2.36	COc1ccc(-c2cc(=O)c3ccc(O)cc3o2)cc1 [compound 47, 7-Hydroxy-4′-methoxyflavone]
3.60	COc1c(O)cc(O)c2c(=O)cc(-c3ccccc3)oc12 [compound 58, Wogonin]
1.89	O=c1c(O)c(-c2ccccc2O)oc2ccccc12 [compound 59, 3,2′-Dihydroxyflavone]
4.44	O=c1c(O)c(-c2cccc(O)c2)oc2ccccc12 [compound 60, 3,3′-Dihydroxyflavone]
3.87	O=c1c(O)c(-c2ccccc2)oc2cccc(O)c12 [compound 61, 3,5-Dihydroxyflavone]
4.34	O=c1c(O)c(-c2ccc(O)cc2)oc2ccc(O)cc12 [compound 62, 3,6,4′-Trihydroxyflavone]
4.34	O=c1c(O)c(-c2ccc(O)c(O)c2)oc2ccccc12 [compound 63, 3,3′,4′-Trihydroxyflavone]
5.04	Cc1ccc2oc(-c3ccccc3)c(O)c(=O)c2c1 [compound 66, 3-Hydroxy-6-methylflavone]
3.92	COc1cccc(-c2oc3ccccc3c(=O)c2O)c1OC [compound 71, 3-Hydroxy-2′,3′-dimethoxyflavone]
4.25	COc1ccccc1-c1oc2ccccc2c(=O)c1O [compound 72, 3-Hydroxy-2′-methoxyflavone]
4.66	COc1cccc(-c2oc3ccccc3c(=O)c2O)c1 [compound 73, 3-Hydroxy-3′-methoxyflavone]
4.51	COc1ccc(-c2oc3ccccc3c(=O)c2O)cc1 [compound 74, 3-Hydroxy-4′-methoxyflavone]
4.40	COc1cc(OC)c2c(=O)c(O)c(-c3ccccc3)oc2c1 [compound 75, 3-Hydroxy-5,7-dimethoxyflavone]
4.36	COc1cccc2oc(-c3ccccc3)c(O)c(=O)c12 [compound 76, 3-Hydroxy-5-methoxyflavone]
4.71	COc1ccc(-c2oc3ccc(OC)cc3c(=O)c2O)cc1 [compound 77, 3-Hydroxy-6,4′-dimethoxyflavone]
4.86	COc1ccc2oc(-c3ccccc3)c(O)c(=O)c2c1 [compound 78, 3-Hydroxy-6-methoxyflavone]
4.57	COc1ccc2c(=O)c(O)c(-c3ccccc3)oc2c1 [compound 80, 3-Hydroxy-7-methoxyflavone]
4.96	Cc1ccc2oc(-c3ccc4c(c3)OCO4)c(O)c(=O)c2c1 [compound 82, 3-Hydroxy-6-methyl-3′,4′-methylenedioxyflavone]

Log (CLint) (Actual)	SMILES
2.00	O=c1c(O)c(-c2ccccc2O)oc2cc(O)cc(O)c12 [compound 83, Datiscetin]
3.60	COc1cc(-c2oc3cc(O)ccc3c(=O)c2O)ccc1O [compound 86, Geraldol]
1.77	O=c1c(O)c(-c2ccc(O)cc2O)oc2cc(O)cc(O)c12 [compound 89, Morin]
4.65	COc1cc(O)c2c(=O)c(O)c(-c3ccc(O)c(O)c3)oc2c1 [compound 93, Rhamnetin]
2.57	COc1cc2c(=O)c(-c3ccccc3)coc2cc1O [compound 98, 7-Hydroxy-6-methoxyisoflavone]
3.57	COc1ccc2c(=O)c(-c3ccccc3)coc2c1O [compound 99, 8-Hydroxy-7-methoxyisoflavone]
0.57	Oc1ccc([C@H]2COc3cc(O)ccc3C2)cc1 [compound 103, Equol]
1.48	COc1ccc(-c2coc3cc(O)ccc3c2=O)cc1 [compound 104, Formononetin]
2.44	COc1cc2c(=O)c(-c3ccc(O)cc3)coc2cc1O [compound 106, Glycitein]
1.87	Oc1ccc2c(c1)OC[C@H]1c3cc4c(cc3O[C@@H]21)OCO4 [compound 107, Maackiain]
1.78	Oc1ccc(C2CCCC2)cc1 [compound 112, 4-Cyclopentylphenol]
0.92	CCOc1ccc(O)cc1 [compound 113, 4-Ethoxyphenol]
1.87	CCc1ccc(O)cc1 [compound 114, 4-Ethylphenol]
1.18	Oc1ccc(F)cc1 [compound 115, 4-Fluorophenol]
1.18	COc1ccc(O)cc1 [compound 118, 4-Methoxyphenol]
1.15	CC(=O)c1ccc(O)cc1 [compound 121, 4-Hydroxyacetophenone]
1.83	O=C(c1ccccc1)c1ccc(O)cc1 [compound 122, 4-Hydroxybenzophenone]
1.00	CCCOc1ccc(O)cc1 [compound 125, 4-Propoxyphenol]
1.62	CCCc1ccc(O)cc1 [compound 126, 4-n-Propylphenol]
3.33	COc1ccc(/C=C\c2cc(OC)c(OC)c(OC)c2)cc1O [compound 136, Combretastatin A4]

SMILES	Log (CLint) (Actual)
O=c1cc(-c2ccccc2)oc2cc(O)ccc12 [compound 49, 7-Hydroxyflavone]	3.13
COc1ccc(-c2oc3cc(OC)ccc3c(=O)c2O)cc1 [compound 79, 3-Hydroxy-7,4′-dimethoxyflavone]	4.66
O=c1c(O)c(-c2ccccc2)oc2ccccc12 [compound 81, 3-Hydroxyflavone]	3.84
COc1cc(O)c2c(=O)c(-c3ccc(O)cc3)coc2c1 [compound 108, Prunetin]	2.25
Oc1ccc(Cl)cc1 [compound 111, 4-Chlorophenol]	1.98
O=[N+]([O-])c1ccc(O)cc1 [compound 120, 4-Nitrophenol]	1.56
Oc1ccc(-c2ccccc2)cc1 [compound 123, 4-Phenylphenol]	1.34
CCCCOC(=O)c1ccc(O)cc1 [compound 129, Butyl-4-hydroxybenzoate]	1.51

— PMC3409642 (Pharmaceutical research, 2012)
